Measured values as given in ChEMBL document CHEMBL2157881, “Labeled Ligand Displacement: Extending NMR-Based Screening of Protein Targets” (ACS Med Chem Lett, 2010).
Activity calls are given as the source filed them. The rule behind the calls is not given here.

Legend:
[1] = Binding affinity to HSP90 ATPase domain assessed as broadening of compound signals using [13C]labeled compound at 20 uM by NMR spectroscopy
[2] = Binding affinity to HSP90 ATPase domain by TR-FRET assay
[3] = Binding affinity HSP90 ATPase domain at 100 uM by STD competition spectroscopy
[4] = Binding affinity bovine carbonic anhydrase; set-up: species or system Bos taurus
[5] = Binding affinity HSP90 ATPase domain assessed as broadening of compound signals using [13C]labeled compound at 200 uM by NMR spectroscopy
[6] = Binding affinity bovine carbonic anhydrase by surface plasma resonance method; set-up: species or system Bos taurus
Bos taurus = organism: Bos taurus; test: Binding affinity bovine carbonic anhydrase assessed as broadening of compound signals using [13C]labeled compound at 20 uM by NMR spectroscopy

SMILES: COc1ccc(Cl)cc1-c1cc(C)nc(N)n1
- Activity [1]: Dose-dependent effect
- Ki [2]: 11 µM
- Activity [3]: Active

SMILES: CCN1CCCC1CNC(=O)c1cc(S(N)(=O)=O)ccc1OC (centres undefined) [SULPIRIDE]
- Ki [4]: 48 µM

SMILES: Cc1cc(-c2cccc3ccccc23)nc(N)n1
- Ki [2]: 5 µM
- Activity [5]: Active

SMILES: Cc1cc(-c2ccccc2)nc(N)n1
- Ki [2]: 14 µM

SMILES: NS(=O)(=O)c1ccc(F)cc1
- Kd [6]: 1 µM
- Activity (Bos taurus): Active
